Where two headings read alike, the source gives them in different places.
How the values were obtained:
Format in all cases: cell-based
IL-8 = IL-8 activity of TLR4 ligands, human; parameters: unit not given here
IP-10 = IP-10 activity of TLR4 ligands, mouse
IL-6 = IL-6 activity of TLR4 ligands, mouse; parameters: unit not given here
TLR4 [1] = biological target: TLR4 (Homo sapiens, UniProt O00206+Q9Y6Y9); experiment: TLR4 activity, human
TLR4 [2] = biological target: T1, TLR4 (Mus musculus, UniProt Q9JHF9+Q9QUK6); experiment: TLR4 activity, mouse
T1 sequence (Q9QUK6 26-835): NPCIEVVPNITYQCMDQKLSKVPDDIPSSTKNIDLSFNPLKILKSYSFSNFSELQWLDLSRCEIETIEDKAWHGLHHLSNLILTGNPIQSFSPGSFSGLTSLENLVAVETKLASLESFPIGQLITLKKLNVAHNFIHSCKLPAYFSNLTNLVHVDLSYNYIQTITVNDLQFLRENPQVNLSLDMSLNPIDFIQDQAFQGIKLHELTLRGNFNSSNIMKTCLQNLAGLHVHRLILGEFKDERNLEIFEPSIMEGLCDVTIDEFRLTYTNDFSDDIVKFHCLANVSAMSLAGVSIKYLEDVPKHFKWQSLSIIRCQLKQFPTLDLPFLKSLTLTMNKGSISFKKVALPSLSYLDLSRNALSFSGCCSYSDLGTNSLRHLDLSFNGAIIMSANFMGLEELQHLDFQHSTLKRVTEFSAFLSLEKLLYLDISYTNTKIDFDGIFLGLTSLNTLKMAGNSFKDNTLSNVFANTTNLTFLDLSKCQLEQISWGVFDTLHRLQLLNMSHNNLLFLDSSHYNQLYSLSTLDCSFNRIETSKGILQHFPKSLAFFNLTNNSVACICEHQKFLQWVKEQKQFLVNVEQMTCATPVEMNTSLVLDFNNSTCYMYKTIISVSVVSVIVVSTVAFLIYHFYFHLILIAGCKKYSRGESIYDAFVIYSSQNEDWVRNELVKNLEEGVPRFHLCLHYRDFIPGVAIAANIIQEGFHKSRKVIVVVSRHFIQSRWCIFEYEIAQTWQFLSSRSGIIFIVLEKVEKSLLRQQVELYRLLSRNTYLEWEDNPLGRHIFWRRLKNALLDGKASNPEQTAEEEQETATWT
T1 sequence (Q9JHF9 19-160): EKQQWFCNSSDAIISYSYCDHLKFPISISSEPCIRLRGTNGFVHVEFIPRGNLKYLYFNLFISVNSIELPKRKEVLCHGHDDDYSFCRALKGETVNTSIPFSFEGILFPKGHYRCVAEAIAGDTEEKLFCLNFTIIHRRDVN

TLR9 signaling = experiment: CpG-DNA-induced TLR9 signaling-mediated inflammatory response in isolated Kupffer cells; details: R848 0.5 μM for 16 hours, then CpG-DNA 5 μg/mL for 4 hours
Description: It was examined whether 1Z1 (FIG. 7) inhibits TLR9 signaling, which promotes liver diseases, including non-alcoholic steatohepatitis (NASH) and alcoholic liver disease (ALD). Isolated Kupffer cells were treated with 1Z1 (5 μM) or R848 (0.5 μM) for 16 hours followed by stimulation with CpG-DNA (TLR9 ligand; 5 μg/mL) for 4 hours and inflammatory cytokine expression was then measured. Pretreatment with […], 1Z1, and R848 inhibited production of IL-6, TNFα, IL-1β, CCL5, CXCL1, and CXCL2 in Kupffer cells following CpG-DNA treatment (FIG. 18).

Chain of TLR4 (Homo sapiens, UniProt O00206+Q9Y6Y9) (O00206 24-839): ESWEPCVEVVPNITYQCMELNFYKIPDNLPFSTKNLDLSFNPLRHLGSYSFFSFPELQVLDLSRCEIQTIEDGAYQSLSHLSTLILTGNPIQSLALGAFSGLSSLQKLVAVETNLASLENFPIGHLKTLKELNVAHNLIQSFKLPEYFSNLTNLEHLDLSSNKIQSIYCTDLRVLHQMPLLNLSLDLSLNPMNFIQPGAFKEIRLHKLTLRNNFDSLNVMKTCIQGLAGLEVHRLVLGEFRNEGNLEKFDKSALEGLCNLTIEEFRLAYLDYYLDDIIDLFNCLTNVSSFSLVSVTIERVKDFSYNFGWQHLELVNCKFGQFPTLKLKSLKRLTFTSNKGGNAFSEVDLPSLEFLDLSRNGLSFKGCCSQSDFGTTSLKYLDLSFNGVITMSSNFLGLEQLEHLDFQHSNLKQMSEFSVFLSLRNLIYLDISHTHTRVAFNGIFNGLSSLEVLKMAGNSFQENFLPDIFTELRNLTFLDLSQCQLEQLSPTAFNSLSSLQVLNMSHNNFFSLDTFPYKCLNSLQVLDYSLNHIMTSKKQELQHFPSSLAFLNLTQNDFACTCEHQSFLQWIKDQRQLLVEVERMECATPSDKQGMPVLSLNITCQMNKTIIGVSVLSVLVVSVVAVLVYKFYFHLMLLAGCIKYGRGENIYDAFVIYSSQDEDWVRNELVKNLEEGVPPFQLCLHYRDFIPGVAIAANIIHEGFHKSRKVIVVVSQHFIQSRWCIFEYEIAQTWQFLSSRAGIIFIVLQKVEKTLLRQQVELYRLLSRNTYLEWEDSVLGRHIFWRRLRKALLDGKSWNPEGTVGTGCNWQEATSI
Chain of TLR4 (Homo sapiens, UniProt O00206+Q9Y6Y9) (Q9Y6Y9 17-160 limits assumed): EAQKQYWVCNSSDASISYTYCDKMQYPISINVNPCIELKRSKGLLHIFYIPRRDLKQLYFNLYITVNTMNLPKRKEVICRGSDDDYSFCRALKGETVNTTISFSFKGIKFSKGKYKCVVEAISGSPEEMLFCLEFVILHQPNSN

human TLR4 (TLR4 [1]; human)	mouse TLR4 (TLR4 [2]; mouse)	Compound	human IL-8 (IL-8)	mouse IP-10 (IP-10)	mouse IL-6 (IL-6)	human TLR4 (TLR4 [1])	mouse TLR4 (TLR4 [2])	production of IL-6, TNFα, IL-1β, CCL5, CXCL1, and CXCL2 following CpG-DNA treatment (TLR9 signaling)
19	9	COC(=O)CCCn1c2ccccc2c2nc(SCC(=O)NC3CCCCC3)n(-c3ccccc3)c(=O)c21 [Compound 44]	124	19	4	–	–	–
–	–	CCCCNC(=O)CSc1nc2c([nH]c3ccccc32)c(=O)n1-c1ccccc1 [Compound 23]	29	61	49	32	31	–
–	–	CCOCc1nc2c(N)nc3ccccc3c2n1CC(C)(C)O [Compound R848]	–	–	–	–	–	inhibited
<1	1	CN(C(=O)CSc1nc2c3ccccc3n(C)c2c(=O)n1-c1ccccc1)C1CCCCC1 [Compound 43]	5	<1	<1	–	–	–

Compound	human TLR4 (TLR4 [1]; human)	mouse TLR4 (TLR4 [2]; mouse)	human IL-8 (IL-8)	mouse IP-10 (IP-10)	mouse IL-6 (IL-6)	human TLR4 (TLR4 [1])	mouse TLR4 (TLR4 [2])	production of IL-6, TNFα, IL-1β, CCL5, CXCL1, and CXCL2 following CpG-DNA treatment (TLR9 signaling)
O=C(CSc1nc2c([nH]c3ccccc32)c(=O)n1-c1ccccc1)NC1CCNCC1 [Compound 34]	<1	<1	17	<1	<1	–	–	–
